In patent publication US8343924B2, “Composition for improving brain function and method for improving brain function” (Calpis Co., Ltd., priority 2009, dated 2013):

How the values were obtained:
[1] = system: scopolamine-induced amnesia; experiment: Y-shaped maze test, prophylactic activity against scopolamine-induced amnesia; format: in vivo; details: male ddY mice, scopolamine 1 mg/kg s.c. 30 min before test
Excerpt: The effect in improving brain function of the composition of the present invention, or the peptide the peptide Pro-Val-Arg-Gly-Pro-Phe-Pro-Ile-Ile-Val (SEQ ID NO: 2) or the peptide Val-Arg-Gly-Pro-Phe-Pro-Ile-Ile-Val (SEQ ID NO: 1) may be confirmed using a system based on an evaluation system for therapeutic drugs against Alzheimer's disease, the system using a Y-shaped maze test, for example. Specifically, a muscarinic receptor antagonist, such as scopolamine, may be used on a rat or a mouse so as to cause a hypofunction of the cholinergic neurons. Then, either the rat or the mouse may be administered with a drug, which induces amnesia by causing brain dysfunction, by itself, or the composition of the present invention, the peptide Pro-Val-Arg-Gly-Pro-Phe-Pro-Ile-Ile-Val (SEQ ID NO: 2) or the peptide Val-Arg-Gly-Pro-Phe-Pro-Ile-Ile-Val (SEQ ID NO: 1) together with such a drug, or the rat or the mouse may be administered, prior to the administration of such a drug, with the composition of the present invention, the peptide Pro-Val-Arg-Gly-Pro-Phe-Pro-Ile-Ile-Val (SEQ ID NO: 2) or the peptide Val-Arg-Gly-Pro-Phe-Pro-Ile-Ile-Val (SEQ ID NO: 1). Then, the mouse or the rat may be subjected to a test using a Y-shaped maze so that the prophylactic actions against amnesia of the composition of the present invention may be confirmed by using the percentage of change in spontaneous alternation behavior to different arms and the total number of entries into the maze as indicators.
Male mice (n=15 to 30) of the ddY strain (approximately 7-week old) were used, and they took food and water ad lib. Test substances used were 3 nmol/kg weight (3 μg/kg weight) and 30 nmol/kg weight (30 μg/kg weight) of Pro-Val-Arg-Gly-Pro-Phe-Pro-Ile-Ile-Val (SEO ID NO: 2). The test substances were administered to the mice once orally 60 minutes before the execution of a Y-shaped maze test for evaluation of spontaneous alternation behavior. […] The sequence of the arms each of the mice entered was recorded. The number of entries by each of the mice for each of the arms during the measurement time was counted to be the total number of entries. […] The percentage of spontaneous alternation behavior was calculated by dividing the number of spontaneous alternation behavior by a number obtained by subtracting 2 from the total number of entries, and multiplying a resultant number by 100. […] The measured values were expressed in the form of mean±standard error for each group. A significant difference between the control group and the scopolamine control group was calculated using Student's t-test. Further, a significant difference between the scopolamine control group and the PVRGPFPIIV (SEQ ID NO: 2)-administered group was calculated using Dunnett's multiple comparison test after one-way analysis of variance. […]

[2] = system: human T2R receptor; details: functions as a bitter substance; cited from earlier work
[3] = Example 2, 3 nmol/kg weight (3 μg/kg) once orally 60 min before test

Sequence | prophylactic activity against amnesia (percentage of spontaneous alternation behavior) [1, 3] | binding to human T2R receptor (receptor for bitter substances) [2] | prophylactic activity against amnesia (percentage of spontaneous alternation behavior) ([1]; Example 1, 3 nmol/kg weight to 30 nmol/kg weight (3 μg/kg to 30 μg/kg) once orally 60 min before test)
RGPFPIIV (Synthetic comparative example peptide) [Arg-Gly-Pro-Phe-Pro-Ile-Ile-Val] | did not show any activity | – | –
PVRGPFPIIV (Synthetic functional peptide) [Pro-Val-Arg-Gly-Pro-Phe-Pro-Ile-Ile-Val] | had a prophylactic activity against amnesia | binds to a human T2R receptor | had a prophylactic activity against amnesia
VRGPFPIIV (Synthetic functional peptide) [Val-Arg-Gly-Pro-Phe-Pro-Ile-Ile-Val] | had a prophylactic activity against amnesia | – | –
